pIC50: −log10 of the molar value.
Legend:
[1] = biological target: T1, human LFA-1 / human ICAM-1 (Homo sapiens, UniProt P20701); experiment: Cell free assay: binding of soluble human ICAM-1 to immobilized human LFA-1; details: cell free assay Ai); read-out: IC50, inhibition of adhesion of LFA-1 to ICAM-1
T1 construct: endogenous in cells; ICAM-1-Cκ: made in house in the baculovirus system
Procedure: The assay measures the binding of soluble human ICAM-1 to Immobilized human LFA-1 is purified from JY cells, a human lymphoblastoid B cell-line, by immunoaffinity chromatography as described by Dustin et al. (J. Immunol. 148, 2654-2663, 1992). ICAM-1 mouse Cκ fusion protein (ICAM-1) is produced using the baculovirus system as described by Weitz-Schmidt et al. (Anal. Biochem.238,184-190, 1996).
Purified LFA-1 is diluted 1:20 in phosphate buffered saline (PBS) containing 2 mM MgCl2, pH 7.4 and coated onto microtitre plates (Nunc) at 37° C. for 3h. Plates are blocked with 1% heat-treated BSA in PBS for 2 hours at 37° C. followed by a washing step using PBS, 2 mM MgCl2, 1% fetal calf serum, pH 7.4 (assay buffer). Compounds dissolved at 10 mM in DMSO are diluted in assay buffer and added to the plates. Biotinylated recombinant ICAM-1 in assay buffer (6 μg/ml) is added and allowed to bind at 37° C. for one hour. After incubation, wells are washed with assay buffer. Streptavidin-peroxidase diluted 1:5000 in assay buffer is added and incubated for 45 min at 37° C. Plates are then washed with assay buffer and 2.2′-azino-bis(3-ethylbenzothiazoline-6 sulfonic acid) diammonium salt substrate solution is added to each well. The reaction is stopped after 20 min and bound ICAM-1 is determined by measuring the optical density at 405 nm in a microplate reader.
In this assay, compounds of formula I inhibit adhesion of LFA-1 to ICAM-1 with an IC50≦30 μM, preferably 0.05 to 30 μM.

[2] = tested on: oxazolone-induced allergic contact dermatitis; experiment: Allergic Contact Dermatitis (ACD), oxazolone-sensitized mice; type: in vivo
Procedure: Groups of oxazolone-sensitized mice are challenged with 10 μl of 0.2 or 2.0% oxazolone on the inner surface of the right to eliciate ACD. The low concentration of oxazolone is used for testing compounds on systemic activity whereas the high concentration is applied for topical testing. The unchallenged left ears serve as normal controls and dermatitis is evaluated from the individual differences in pinnal weight, which is taken as a measure of increase in inflammatory swelling 24 h after the challenge. Dermatitis is evaluated in test- and for comparison in control groups. The test groups are treated with the test compounds either orally (twice, 2 h and immediately before challenge), subcutaneously (immediately before challenge) or topically (30 min after challenge at the site of elicitation of the ACD); the controls are treated similarly with the vehicles alone. For oral and subcutaneous administration the compounds are administered in an oil in water emulsion, for topical administration the compounds are prepared in a mixture of ethanol, acetone and dimethylacetamide. The data of the test- and the vehicle-treated control groups are statistically analysed by ANOVA followed by Dunnet T-test (normal distribution or data) or by H and U-test, respectively. […]

[3] = tested on: thioglycollate induced neutrophil migration; experiment: Murine Thioglycollate Induced Peritonitis; type: in vivo, mice; details: Mus musculus, Neutrophil, po; p.o.; neutrophils in peritoneal lavage after 4 hours; read-out: ED50 in test Bi)
[4] = tested on: Peripheral blood mononuclear cells (PBMC); experiment: Human Mixed Lymphocyte Reaction (MLR); type: cell-based; details: 2-way reactions, six days, 3H-thymidine, read-out: IC50, 50% inhibition of cell proliferation in MLR
Procedure: Peripheral blood mononuclear cells (PBMC) are isolated from human buffy coats. In each experiment, PBMC from three different donors (A, B, and C) are set up in three individual 2-way reactions (A-B, A-C, B-C). Cells are cocultured for six days and proliferation is determined by pulsing the cells with ^3H-thymidine. The concentration of compounds of formula I which results in 50% inhibition of cell proliferation (IC50) is calculated.

T1 sequence (P20701 26-1170): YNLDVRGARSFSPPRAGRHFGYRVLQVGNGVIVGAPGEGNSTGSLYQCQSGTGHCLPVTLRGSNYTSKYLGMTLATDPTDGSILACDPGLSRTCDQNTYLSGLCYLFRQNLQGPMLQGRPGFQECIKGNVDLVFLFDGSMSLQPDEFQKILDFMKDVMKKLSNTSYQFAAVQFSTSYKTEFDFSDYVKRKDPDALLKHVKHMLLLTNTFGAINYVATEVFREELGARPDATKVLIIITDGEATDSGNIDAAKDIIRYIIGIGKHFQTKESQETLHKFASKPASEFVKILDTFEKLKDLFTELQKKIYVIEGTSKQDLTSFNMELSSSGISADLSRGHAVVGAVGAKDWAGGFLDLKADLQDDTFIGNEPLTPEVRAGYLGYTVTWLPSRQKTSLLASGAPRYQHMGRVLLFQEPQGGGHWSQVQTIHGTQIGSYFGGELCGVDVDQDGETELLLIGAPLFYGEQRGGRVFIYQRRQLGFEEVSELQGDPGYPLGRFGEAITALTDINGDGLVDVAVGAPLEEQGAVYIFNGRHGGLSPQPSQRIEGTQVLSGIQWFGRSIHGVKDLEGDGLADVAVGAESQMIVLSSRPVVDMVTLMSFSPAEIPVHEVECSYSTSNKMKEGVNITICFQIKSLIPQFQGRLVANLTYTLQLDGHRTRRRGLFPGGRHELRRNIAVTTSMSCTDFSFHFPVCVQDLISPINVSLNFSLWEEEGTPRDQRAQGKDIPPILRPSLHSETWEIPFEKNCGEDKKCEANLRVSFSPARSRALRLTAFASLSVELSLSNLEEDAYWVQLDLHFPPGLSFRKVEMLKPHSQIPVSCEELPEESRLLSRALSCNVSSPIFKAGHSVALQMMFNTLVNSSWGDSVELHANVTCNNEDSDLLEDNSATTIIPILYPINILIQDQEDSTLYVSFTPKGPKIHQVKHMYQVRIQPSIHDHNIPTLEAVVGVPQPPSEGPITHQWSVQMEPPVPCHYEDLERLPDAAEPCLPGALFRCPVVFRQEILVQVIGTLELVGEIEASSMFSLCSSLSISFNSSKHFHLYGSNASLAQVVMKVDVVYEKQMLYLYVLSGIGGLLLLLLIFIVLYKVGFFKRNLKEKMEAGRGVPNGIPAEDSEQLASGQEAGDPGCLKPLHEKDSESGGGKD
T1 sequence (P05107 23-769 partner): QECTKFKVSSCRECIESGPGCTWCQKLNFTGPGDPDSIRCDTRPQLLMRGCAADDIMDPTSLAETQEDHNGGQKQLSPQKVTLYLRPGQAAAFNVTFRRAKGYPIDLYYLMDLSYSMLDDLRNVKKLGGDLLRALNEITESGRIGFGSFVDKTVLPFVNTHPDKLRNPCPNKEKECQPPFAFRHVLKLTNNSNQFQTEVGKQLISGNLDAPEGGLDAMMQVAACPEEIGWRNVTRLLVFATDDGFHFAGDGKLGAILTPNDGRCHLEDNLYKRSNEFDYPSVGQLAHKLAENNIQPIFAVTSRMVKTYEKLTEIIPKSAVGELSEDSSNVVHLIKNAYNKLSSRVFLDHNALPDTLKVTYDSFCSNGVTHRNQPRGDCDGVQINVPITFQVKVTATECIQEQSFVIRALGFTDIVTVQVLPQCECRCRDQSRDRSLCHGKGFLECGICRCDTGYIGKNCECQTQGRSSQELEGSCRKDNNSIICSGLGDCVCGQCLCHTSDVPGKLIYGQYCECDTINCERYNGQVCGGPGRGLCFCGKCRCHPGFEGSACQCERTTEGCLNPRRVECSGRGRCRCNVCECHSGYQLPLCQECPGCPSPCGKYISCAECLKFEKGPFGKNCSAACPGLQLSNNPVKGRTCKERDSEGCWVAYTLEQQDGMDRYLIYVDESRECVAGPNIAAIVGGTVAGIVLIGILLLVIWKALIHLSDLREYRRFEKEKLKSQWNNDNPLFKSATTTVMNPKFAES

pIC50 [1] | SMILES | inhibition of inflammatory swelling in ACD ([2]; 2x 1 mg/kg p.o.) [%] | inhibiting effect in ACD ([2]; p.o. at a dose of 2×3 mg/kg) [%] | ED50 [3] [µg/kg] | pIC50 [4]
6.72 | CC[C@H](C)C(=O)O[C@H]1C[C@@H](C)C=C2C=C[C@H](C)[C@H](CC[C@H]3C[C@@H](O)CC(=O)N3Cc3ccc4c(CO)c(OC)ccc4c3)[C@H]21 [Ex. 34, (S)2-Methyl-butyric acid (1S,3R,7S,8S,8aR)-8-{2-[(2S,4R)4-hydroxy-1-(5-hydroxymethyl-6-methoxy-naphthalen-2-ylmethyl)-6-oxo-piperidin-2-yl]-ethyl}-3,7-dimethyl-1,2,3,7,8,8a-hexahydro-naphthalen-1-yl ester] | 41 |  |  | 
7.30 | CC[C@H](C)C(=O)O[C@H]1C[C@@H](C)C=C2C=C[C@H](C)[C@H](CC[C@@H]3C[C@H](CC(=O)NC)N(Cc4ccc(O)c(OC)c4)C(=O)O3)[C@H]21 [Ex. 2] |  | 41 | 0.1 | 6.70
6.10 | CC[C@H](C)C(=O)O[C@H]1C[C@@H](C)C[C@@H]2CC[C@H](C)[C@H](CC[C@@H](O)C[C@@H](O)CC(=O)NCc3ccc(OC)c(OC)c3)[C@H]21 [compound 28, (S)-2-Methyl-butyric acid (S)-(3S,4aS,7S,8S,8aS)-8-[(3R,5)6-(3,4-dimethoxy-benzylcarbamoyl)-3,5-dihydroxy-hexyl]-3,7-dimethyl-decahydro-naphthalen-1-yl ester] |  |  |  | 
